Where two headings read alike, the source gives them in different places. Bridge positions count the residues as written; N and C are the ends. Ends that are not written are not given here. I, II: the chains in the order shown.
Legend:
mTOR [1] = assay: Selection of potent siRNA targeting mTOR, transfection and qRT-PCR, CT26; type: cell-based; details: mouse CT26 cells, qRT-PCR
Excerpt: (§1) FIG. 3. Selection of potent siRNA targeting mTOR. (A) The lower panel illustrates selection of eight 25 mer siRNA duplexes with control siRNA were transfected into human MDA-MB-231 cells and mouse CT26 cells. 24 hr later, mRNA was collected and subject to Q-RT-PCR with the standard control gene target Rigs15.
(§2) For mTOR siRNA selection, we first use in silico screening selected 8 siRNA sequences for siRNA oligo synthesis. And then we transfected these siRNAs into human MDA-MB-231 cells and mouse CT26 cells. Twenty-four hours later, the total mRNA collected and subjected to qRT-PCR analysis with the standard control gene target Rigs15. From FIG. 3 we can see that the potent siRNA duplexes targeting mTOR (both human and mouse mRNAs) was selected.
(§3) We have identified potent mTOR specific siRNA through cell culture studies with human breast cancer cell line MDA-MB-231 and mouse CT26 cells, followed by qRT-PCR analyses: mTOR-siRNA: […]

mTOR [2] = assay: Selection of potent siRNA targeting mTOR, transfection and qRT-PCR, MDA-MB-231; type: cell-based; details: human MDA-MB-231 cells, qRT-PCR
Excerpt: as §1, §2, §3

Panc-1 cells [3] = assay: Effect of TGF-β1siRNA and mTORsiRNA on chemosensitivity of Panc-1 cells to low dose GEM-TCA; type: cell-based, human; details: 48 h; for maximum cell killing: siRNA 30 nM plus GEM-TCA up to 1 μM; for sensitization of Panc-1 cells to GEM-TCA: siRNA 30 nM
Procedure: FIG. 10. Effect of forward transfection with TGF-β1siRNA and mTORsiRNA chemosensitivity of Panc-1 cells to […] The next day, the medium was supplemented with 3.9 nM-1000 nM […] diluted in the same medium. At 48 h post chemical exposure cytotoxicity was assessed with Cell Titer-Glo Luminescent cell viability assay (Promega). Values derived from untreated cells (Blank) were set as 100%. All values represent the mean of ±S.D. of four replicates for each dilution. Paired sample two-tailed Student's t-test was used to determine significance.
. At 48 h post chemical exposure cytotoxicity was assessed with Cell Titer-Glo Luminescent cell viability assay (Promega). Values derived from untreated cells (Blank) were set as 100%. All values represent the mean of ±S.D. of four replicates for each dilution. Paired sample two-tailed Student's t-test was used to determine significance. The TGF-β1siRNA was previously identified and validated with multiple in vitro and in vivo assays: […]

Panc-1 cells [4] = assay: Effect of forward transfection with mTOR siRNA on chemosensitivity of Panc-1 cells to GEM-TCA; type: cell-based, human; details: mTOR-siRNA 10 nM and 20 nM; GEM-TCA 12.3 nM to 1 μM; 72 h; vs non-targeting siRNA
Procedure: FIG. 9. Effect of forward transfection with mTORsiRNA on chemosensitivity of Panc-1 cells to […] 5×10^3 Panc-1 cells were seeded on the wells of 96-well plate in 100 ul of DMEM/10% FBS. The next day cells were transfected with siRNA/Lipofectamine 2000 complexes accordingly to the manufactures' recommendations. In 5-6 h. medium was changed. The next day various concentrations of […] were applied to the transfected cells. At 72 h post chemical exposure cytotoxicity was assessed with Cell Titer-Glo Luminescent cell viability assay (Promega). Values derived from untreated cells (Blank) were set as 100%. All values represent the mean of ±S.D. of four replicates for each dilution. * different from cells transfected with control, not-targeting siRNA (p<0.05, Student's t test)
To realize the original hypothesis that the oncogenic gene target knockdown may induce a chemosensitivity of Panc-1 cell toward to […], the experiment was conducted with following procedures. 5×10^3 Panc-1 cells were seeded on the wells of 96-well plate in 100 ul of DMEM/10% FBS. The next day cells were transfected with siRNA/Lipofectamine 2000 complexes accordingly to the manufactures' recommendations. In 5-6 h. medium was changed. […] At 72 h post chemical exposure cytotoxicity was assessed with Cell Titer-Glo Luminescent cell viability assay (Promega). […]

[5] = cited from earlier work
[6] = test system: LX-1, CALU-6, NCI-H460, NCI-H520 human lung xenografts; details: cited from earlier work
[7] = test system: Lewis lung murine xenograft; details: cited from earlier work
[8] = -NH2 of Gemcitabine; cited from earlier work
Panc-1 cells [9] = assay: Dosage-dependent cytotoxicities of Gemcitabine and GEM-HKP conjugate, Cell Titer-Glo; type: cell-based, human; details: Panc-1, 72 hrs post treatment
Procedure: FIG. 21. Dosage-Dependent Cytotoxicities of Gemcitabine and GEM-HKP conjugate in the Panc-1 cell culture, at 72 hrs post treatments After exposures of the Panc-1 cells to Gemcitabine only, GEM-HKP conjugate, the cytotoxicities of each treatment was assessed with a “Cell Titer-Glo Luminescent cell viability assay” (Promega). Values derived from untreated cells (Blank) were set as 100%. All values represent the mean of ±S.D. of four replicates for each dilution. In this study, the HKP concentration at each point equals to its concentration in the Gem/HKP.

miR-132 = assay: Knockdown of miR-132 by antagomir-132 nanoparticles in mouse eyes; type: in vivo; details: QPCR
Procedure: FIG. 4. Knockdown of miR-132 by antagomir-132 nanoparticles in mouse eyes. […] One way ANOVA with Bonferroni's post hoc test was used to calculate the level of significance. P≤0.05 (*). Six corneas were collected and pooled for analysis by QPCR or WB. (B) Antagomir-132 and scrambled sequences were injected in HSV infected mice subconjunctively and the quantification of RasGAP mRNA from corneas isolated from different groups was carried out (n=6 mice/group). The level of significance was determined by student's t test (unpaired). ***P≤0.001.
One way ANOVA with Bonferroni's post hoc test was used to calculate the level of significance. P≤0.05 (*). Six corneas were collected and pooled for analysis by QPCR or WB. (B) Antagomir-132 and scrambled sequences were injected in HSV infected mice subconjunctively and the quantification of RasGAP mRNA from corneas isolated from different groups was carried out (n=6 mice/group). The level of significance was determined by student's t test (unpaired). ***P≤0.001 (FIG. 4).

## mTOR-siRNA: 25mer siRNA duplex specific to mTOR mRNA; sense 5′-r(GGUCUGGUGCCUGGUCUGAUGAUGU)-3′ in b114 (sense CACUACAAAGAACUGGAGUUCCAGA; antisense UCUGGAACUCCAGUUCUUUGUAGUG; further chemistry not given here)
mTOR [1]
  mTOR silencing potency: potent
mTOR [2]
  mTOR silencing potency: potent
Panc-1 cells [3]
  maximum cell killing: 60%
Panc-1 cells [3]; GEM-TCA 3.9 nM
  sensitization of Panc-1 cells to GEM-TCA: significantly sensitize
Panc-1 cells [3]; GEM-TCA 15.6 nM
  sensitization of Panc-1 cells to GEM-TCA: sensitization effect was disappeared
Panc-1 cells [4]
  tumor cell killing by GEM-TCA after siRNA transfection: significantly improved

## Nc1ccn([C@@H]2O[C@H](CO)[C@@H](O)C2(F)F)c(=O)n1 [Gemcitabine, 2′,2′-difluorodeoxycytidine]
[5]
  activity with cisplatin in vitro: dose-dependent synergistic activity
[6]; LX-1 and CALU-6 human lung xenografts
  activity in combination with cisplatin: showed activity
[6]; NCI-H460 or NCI-H520 xenografts
  activity in combination with cisplatin: minimal activity
[7]
  interaction with cisplatin: synergistic
[8]
  pKa: ~2.8

## I: KHHHKHHHKHHHKHHHKKKK-NH2 / II: KHHHKHHHKHHHKHHHK / III: KHHHKHHHKHHHKHHHK / IV: KHHHKHHHKHHHKHHHK (amide I:18-IV:C, I:19-III:C, I:20-II:C) [HKP]
Panc-1 cells [9]
  cytotoxicity: no cytotoxicity

## TGF-β1siRNA: siRNA duplex to TGF-β1; sense 5′-r(CCUCAAUUCAGUCUCUCAUCUGCAA)-3′ in b118 (sense CCCAAGGGCUACCAUGCCAACUUCU; antisense AGAAGUUGGCAUGGUAGCCCUUGGG; chemistry not given here)
Panc-1 cells [3]
  maximum cell killing: 60%
Panc-1 cells [3]; GEM-TCA 3.9 nM
  sensitization of Panc-1 cells to GEM-TCA: significantly sensitize
Panc-1 cells [3]; GEM-TCA 62.5 nM
  sensitization of Panc-1 cells to GEM-TCA: sensitization effect was still significant

## Antagomir-132: modified RNA oligo targeting miR-132 (accguggcuuucgauuguuacu), packaged with HKP into nanoparticles (antisense ACCGUGGCUUUCGAUUGUUACU; chemically modified, pattern not given here, packaged with HKP into nanoparticles)
miR-132
  miR-132 knockdown in the corneas: peak miR-132 knockdown

— patent publication US20200108089A1, “Gemcitabine Derivatives for Cancer Therapy” (Suzhou Sirnaomics Biopharmaceuticals Co., Ltd., priority 2017, published 2020)
